From ChEMBL document CHEMBL1201862, “PubChem BioAssay data set” (2004)
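Cultured in 96-well plates, cells were exposed to test compound for 48 hours across five concentrations. At the GI50, growth is halved.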 Active and inactive are the calls of the source. Cut-off read from the data, not from the text of the source: active = GI50 up to about 1.1 µM and inactive = higher.

How the values were obtained:
Assay in all cases: NCI-60 cell line screen, 48 h
HT-29 = system: HT-29
NCI-H460 = system: NCI-H460
TK-10 = system: TK-10
M14 = system: M14
RPMI-8226 = system: RPMI-8226
U-251 = system: U-251
SW-620 = system: SW-620
NCI-H522 = system: NCI-H522
HCT-15 = system: HCT-15
MOLT-4 = system: MOLT-4
OVCAR-8 = system: OVCAR-8
CAKI-1 = system: CAKI-1
UACC-62 = system: UACC-62
RXF 393 = system: RXF 393
PC-3 = system: PC-3
SK-MEL-28 = system: SK-MEL-28
Malme-3M = system: Malme-3M
NCI-H23 = system: NCI-H23
A549 = system: A549
MDA-N = system: MDA-N
786-0 = system: 786-0
COLO 205 = system: COLO 205
HCC 2998 = system: HCC 2998
SF-295 = system: SF-295
HOP-92 = system: HOP-92
OVCAR-5 = system: OVCAR-5
HCT-116 = system: HCT-116
EKVX = system: EKVX
SK-OV-3 = system: SK-OV-3
SK-MEL-2 = system: SK-MEL-2
SF-268 = system: SF-268
LOX IMVI = system: LOX IMVI
KM12 = system: KM12
OVCAR-3 = system: OVCAR-3
OVCAR-4 = system: OVCAR-4
DU-145 = system: DU-145
SR = system: SR
NCI-H226 = system: NCI-H226
SF-539 = system: SF-539
NCI/ADR-RES = system: NCI/ADR-RES
A498 = system: A498
ACHN = system: ACHN
SNB-75 = system: SNB-75
HOP-62 = system: HOP-62
UO-31 = system: UO-31
SK-MEL-5 = system: SK-MEL-5
IGROV-1 = system: IGROV-1
MDA-MB-435 = system: MDA-MB-435
SNB-19 = system: SNB-19
MDA-MB-231 = system: MDA-MB-231
SN12C = system: SN12C
MCF7 = system: MCF7
T47D = system: T47D
UACC-257 = system: UACC-257
Hs-578T = system: Hs-578T
HL-60 = system: HL-60
CCRF-CEM = system: CCRF-CEM
K562 = system: K562

O=C1Nc2ccccc2/C1=N/NC(=S)N1CCCCC1
GI50 (HT-29): 0.946 µM (active) | GI50 (NCI-H460): 0.0841 µM (active) | GI50 (TK-10): 0.295 µM (active) | GI50 (M14): 0.29 µM (active) | GI50 (RPMI-8226): 0.299 µM (active) | GI50 (U-251): 0.678 µM (active) | GI50 (SW-620): 0.681 µM (active) | GI50 (NCI-H522): 2.79 µM (inactive) | GI50 (HCT-15): 0.19 µM | GI50 (MOLT-4): 0.354 µM (active) | GI50 (OVCAR-8): 0.317 µM (active) | GI50 (CAKI-1): 0.904 µM (active) | GI50 (UACC-62): 1.15 µM (inactive) | GI50 (RXF 393): 0.0906 µM (active) | GI50 (PC-3): 0.337 µM (active) | GI50 (SK-MEL-28): 2.17 µM (inactive) | GI50 (Malme-3M): 0.234 µM (active) | GI50 (NCI-H23): 1.39 µM (inactive) | GI50 (A549): 0.428 µM (active) | GI50 (MDA-N): 1.48 µM (inactive) | GI50 (786-0): 0.301 µM (active) | GI50 (COLO 205): 0.774 µM (active) | GI50 (HCC 2998): 1.27 µM (inactive) | GI50 (SF-295): 0.256 µM (active) | GI50 (HOP-92): 2.25 µM (inactive) | GI50 (OVCAR-5): 4.05 µM (inactive) | GI50 (HCT-116): 0.216 µM (active) | GI50 (EKVX): 1.31 µM (inactive) | GI50 (SK-OV-3): 2.01 µM (inactive) | GI50 (SK-MEL-2): 1.79 µM (inactive) | GI50 (SF-268): 0.493 µM (active) | GI50 (LOX IMVI): 0.418 µM (active) | GI50 (KM12): 0.0841 µM (active) | GI50 (OVCAR-3): 0.145 µM (active) | GI50 (OVCAR-4): 1.53 µM (inactive) | GI50 (DU-145): 1.91 µM (inactive) | GI50 (SR): 0.675 µM (active) | GI50 (NCI-H226): 1.37 µM (inactive) | GI50 (SF-539): 0.082 µM (active) | GI50 (NCI/ADR-RES): 0.0415 µM (active) | GI50 (A498): 356 nM (active) | GI50 (ACHN): 0.397 µM (active) | GI50 (SNB-75): 1.52 µM (inactive) | GI50 (HOP-62): 0.3 µM (active) | GI50 (UO-31): 0.592 µM (active) | GI50 (SK-MEL-5): 0.0667 µM (active) | GI50 (IGROV-1): 0.138 µM (active) | GI50 (MDA-MB-435): 1.36 µM (inactive) | GI50 (SNB-19): 1.98 µM (inactive) | GI50 (MDA-MB-231): 0.393 µM (active) | GI50 (SN12C): 2.17 µM (inactive) | GI50 (MCF7): 1.5 µM (inactive) | GI50 (T47D): 5.94 µM (inactive)

COP(=O)(OC)C(O)/C=C(\Cl)c1ccc(Cl)cc1 (stereo not drawn)
GI50 (HT-29): > 100 µM (inactive) | GI50 (NCI-H460): > 100 µM (inactive) | GI50 (TK-10): > 100 µM (inactive) | GI50 (M14): 62.1 µM (inactive) | GI50 (RPMI-8226): 25.6 µM (inactive) | GI50 (U-251): 53.2 µM (inactive) | GI50 (SW-620): 38.8 µM (inactive) | GI50 (NCI-H522): 49.1 µM (inactive) | GI50 (HCT-15): 25.9 µM | GI50 (UACC-257): 28.4 µM (inactive) | GI50 (Hs-578T): > 100 µM (inactive) | GI50 (HL-60): 32.9 µM (inactive) | GI50 (MOLT-4): 28.1 µM (inactive) | GI50 (OVCAR-8): 23.9 µM (inactive) | GI50 (CAKI-1): 69.2 µM (inactive) | GI50 (UACC-62): 56 µM (inactive) | GI50 (RXF 393): 78.2 µM (inactive) | GI50 (PC-3): 31.6 µM (inactive) | GI50 (SK-MEL-28): > 100 µM (inactive) | GI50 (Malme-3M): > 100 µM (inactive) | GI50 (NCI-H23): 21.2 µM (inactive) | GI50 (A549): > 100 µM (inactive) | GI50 (786-0): 19.2 µM (inactive) | GI50 (COLO 205): > 100 µM (inactive) | GI50 (SF-295): > 100 µM (inactive) | GI50 (HOP-92): 18.9 µM (inactive) | GI50 (OVCAR-5): > 100 µM (inactive) | GI50 (HCT-116): 18.4 µM (inactive) | GI50 (EKVX): > 100 µM (inactive) | GI50 (SK-OV-3): > 100 µM (inactive) | GI50 (SK-MEL-2): > 100 µM (inactive) | GI50 (SF-268): 65.2 µM (inactive) | GI50 (LOX IMVI): 19.6 µM (inactive) | GI50 (KM12): > 100 µM (inactive) | GI50 (OVCAR-3): 19.1 µM (inactive) | GI50 (OVCAR-4): 37.2 µM (inactive) | GI50 (DU-145): > 100 µM (inactive) | GI50 (SR): 21.3 µM (inactive) | GI50 (NCI-H226): > 100 µM (inactive) | GI50 (CCRF-CEM): 21.1 µM (inactive) | GI50 (SF-539): > 100 µM (inactive) | GI50 (NCI/ADR-RES): 23.1 µM (inactive) | GI50 (ACHN): 85.1 µM (inactive) | GI50 (SNB-75): > 100 µM (inactive) | GI50 (HOP-62): 28.4 µM (inactive) | GI50 (UO-31): 71 µM (inactive) | GI50 (SK-MEL-5): 23.7 µM (inactive) | GI50 (IGROV-1): > 100 µM (inactive) | GI50 (MDA-MB-435): 40.7 µM (inactive) | GI50 (SNB-19): 75.5 µM (inactive) | GI50 (MDA-MB-231): 43.8 µM (inactive) | GI50 (SN12C): 40.7 µM (inactive) | GI50 (MCF7): 96.4 µM (inactive) | GI50 (T47D): 25.3 µM (inactive) | GI50 (K562): 43.5 µM (inactive)
